Experimental data taken from patent US9546157B2, “Asymmetric piperidinyl-substituted ureas as medicines” (Helsinn Healthcare SA, priority 2014, dated 2017).

Columns and labels:
[1] = molecular target: T1, GHSR1a (Homo sapiens, UniProt Q92847); experiment: Calcium FLIPR assay, GHSR-1a antagonism (reduction of ghrelin response); assay type: cell-based; details: HEK293/GHSR1a cells, ghrelin 10 nM
T1 construct: expressed in transfected cells; host or cells: HEK293
Method: (§1) The intracellular calcium assay was carried out in a 384-well format FLIPR™ (Molecular Device) HEK293/GHSR1a cell line. Cells were seeded 24 hr prior to the experiments at an optimal density per well. Preincubation with selected calcium dye lasted for 30-60 min at room temperature or 37° C. Test compounds, dissolved in DMSO, were added at the appropriate time and incubated for 15 min followed by the addition of ghrelin with FlexStation or FLIPR. Relative fluorescence was monitored by the FLIPR™ Molecular Device. EC50 and IC50 values were estimated from dose-response data using GraphPad Prism software. To check for GHSR-1a agonism the compound was added at t=20 sec. and the calcium response was followed for 2 minutes. To check for GHSR-1a antagonism the compound and Ghrelin (10 nM) were added to the cells at t=20 sec. and the calcium response was measured for 2 minutes. The potency of the antagonist was calculated by its ability to reduce the ghrelin response. Dose-response curves were made for relevant antagonists.

[2] = molecular target: T1, GHSR1a; experiment: Calcium FLIPR assay, GHSR-1a agonism; assay type: cell-based; design: Emax: unit not given here; details: HEK293/GHSR1a cells
Method: as §1

T1 sequence (Q92847 whole entry): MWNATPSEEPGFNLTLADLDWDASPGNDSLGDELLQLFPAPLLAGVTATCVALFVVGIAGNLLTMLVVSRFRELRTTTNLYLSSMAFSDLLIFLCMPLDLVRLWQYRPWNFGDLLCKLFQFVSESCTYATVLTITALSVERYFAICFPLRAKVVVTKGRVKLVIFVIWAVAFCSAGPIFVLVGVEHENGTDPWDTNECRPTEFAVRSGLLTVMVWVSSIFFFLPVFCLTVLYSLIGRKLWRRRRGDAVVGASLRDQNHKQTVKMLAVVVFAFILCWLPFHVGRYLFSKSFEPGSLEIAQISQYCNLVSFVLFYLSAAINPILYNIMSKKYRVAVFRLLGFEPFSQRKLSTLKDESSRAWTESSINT

SMILES | IC50 [1] [µM] | EC50 [2] [µM] | Emax [2]
CC(NC(=O)N(C)C1CCN(C)CC1)c1ccc(-c2cnc(CO)cn2)c(Cl)c1Cl (stereo not shown) [Compound H0770, 3-(1-(2,3-dichloro-4-(5-(hydroxymethyl)pyrazin-2-yl)phenyl)ethyl)-1-methyl-1-(1-methylpiperidin-4-yl)urea] | 0.7 | 0.294 | 1783
CC(NC(=O)N(C)C1CCN(C)CC1)c1ccc(-c2ccc(C#N)nc2)c(Cl)c1Cl (stereo not shown) [Compound H0616, 3-(1-(2,3-dichloro-4-(6-cyanopyridin-3-yl)phenyl)ethyl)-1-methyl-1-(1-methylpiperidin-4-yl)urea] | 0.132 | 0.58 | –
CC(NC(=O)N(C)C1CCOCC1)c1ccc(-c2cncnc2)c(Cl)c1Cl (stereo not shown) [Compound H0586, 3-(1-(2,3-dichloro-4-(pyrimidin-5-yl)phenyl)ethyl)-1-methyl-1-(tetrahydro-2H-pyran-4-yl)urea] | 4.2 | 63 | –
CC(NC(=O)N(C)C1CCN(C)CC1)c1ccc(-c2ccc(C=O)s2)c(Cl)c1Cl (stereo not shown) [Compound H0652, 3-(1-(2,3-dichloro-4-(5-formylthiophen-2-yl)phenyl)ethyl)-1-methyl-1-(1-methylpiperidin-4-yl)urea] | 0.007 | 0.005 | 1500
CC(NC(=O)N(C)C1CCN(C)C1)c1ccc(-c2cccnc2)c(Cl)c1Cl (stereo not shown) [Compound H0526, 3-(1-(2,3-dichloro-4-(pyridin-3-yl)phenyl)ethyl)-1-methyl-1-(1-methylpyrrolidin-3-yl)urea] | 0.057 | > 30 | –
CN1CCC(N(C)C(=O)NC2(c3ccc(-c4cncnc4)c(Cl)c3Cl)CC2)CC1 [Compound H0673, 3-(1-(2,3-dichloro-4-(pyrimidin-5-yl)phenyl)cyclopropyl)-1-methyl-1-(1-methylpiperidin-4-yl)urea] | > 1 | > 30 | –
CC(NC(=O)N(C)C1CCN(C)CC1)c1ccc(-c2ccc(C(=O)N(C)C)s2)c(Cl)c1Cl (stereo not shown) [Compound H0726, 5-(2,3-dichloro-4-(1-(3-methyl-3-(1-methylpiperidin-4-yl)ureido)ethyl)phenyl)-N,N-dimethylthiophene-2-carboxamide] | 0.456 | > 30 | –
COC(=O)c1ccc(C(C)NC(=O)N(C)C2CCN(C)CC2)c(Cl)c1Cl (stereo not shown) [Compound H0521] | 0.02 | 0.019 | –
CC(NC(=O)N(C)C1CCN(C)CC1)c1ccc(-c2cccs2)c(Cl)c1Cl (single isomer, unassigned) [Compound H0564, 3-(1-(2,3-dichloro-4-(thiophen-2-yl)phenyl)ethyl)-1-methyl-1-(1-methylpiperidin-4-yl)urea] | 0.075 | 0.124 | 1987
COc1ccc(C(C)(C#N)NC(=O)N(C)C2CCN(C)CC2)c(Cl)c1Cl (stereo not shown) [Compound H0671, 3-(1-cyano-1-(2,3-dichloro-4-methoxyphenyl)ethyl)-1-methyl-1-(1-methylpiperidin-4-yl)urea] | 0.034 | 0.06 | 3748
CC(NC(=O)N(C)C1CCN(C)CC1)c1ccc(NC(=O)c2cccs2)c(Cl)c1Cl (stereo not shown) [Compound H0772, N-(2,3-dichloro-4-(1-(3-methyl-3-(1-methylpiperidin-4-yl)ureido)ethyl)phenyl)thiophene-2-carboxamide] | 0.003 | 0.007 | 3569
CN1CCC(N(C)C(=O)NC(C#N)c2ccc(-c3cncnc3)c(Cl)c2Cl)CC1 (stereo not shown) [Compound H0631, 3-(cyano(2,3-dichloro-4-(pyrimidin-5-yl)phenyl)methyl)-1-methyl-1-(1-methylpiperidin-4-yl)urea] | 0.719 | > 30 | –
C#Cc1ccc(C(C)NC(=O)N(OCC)C2CCN(C)CC2)c(Cl)c1Cl (stereo not shown) [Compound H0749, 3-(1-(2,3-dichloro-4-ethynylphenyl)ethyl)-1-ethoxy-1-(1-methylpiperidin-4-yl)urea] | 0.111 | 0.397 | 1554
C=Cc1ccc(C(C)NC(=O)N(C)C2CCN(C)CC2)c(Cl)c1Cl (stereo not shown) [Compound H0626, 3-(1-(2,3-dichloro-4-vinylphenyl)ethyl)-1-methyl-1-(1-methylpiperidin-4-yl)urea] | 0.004 | 0.015 | 3835
C#Cc1ccc(C(C)NC(=O)N(O)C2CCN(C)CC2)c(Cl)c1Cl (stereo not shown) [Compound H0745, 3-(1-(2,3-dichloro-4-ethynylphenyl)ethyl)-1-hydroxy-1-(1-methylpiperidin-4-yl)urea] | 0.057 | 0.097 | 2391
CC(NC(=O)N(C)C1CCN(C)CC1)c1ccc(-c2cncc(-c3cn[nH]c3)c2)c(Cl)c1Cl (stereo not shown) [Compound H0707, 3-(1-(4-(5-(1H-pyrazol-4-yl)pyridin-3-yl)-2,3-dichlorophenyl)ethyl)-1-methyl-1-(1-methylpiperidin-4-yl)urea] | 0.185 | > 30 | –
CC(NC(=O)N(C)C1CCN(C)CC1)c1ccc(C#Cc2c[nH]cn2)c(Cl)c1Cl (stereo not shown) [Compound H0763, 3-(1-(4-((1H-imidazol-4-yl)ethynyl)-2,3-dichlorophenyl)ethyl)-1-methyl-1-(1-methylpiperidin-4-yl)urea] | 0.835 | > 30 | –
C#Cc1cncc(-c2ccc(C(C)NC(=O)N(C)C3CCN(C)CC3)c(Cl)c2Cl)c1 (stereo not shown) [Compound H0710, 3-(1-(2,3-dichloro-4-(5-ethynylpyridin-3-yl)phenyl)ethyl)-1-methyl-1-(1-methylpiperidin-4-yl)urea] | 0.275 | 0.395 | 1621
CC(NC(=O)N(C)C1CCN(C)CC1)c1ccc(-c2cncc(C3CC3)c2)c(Cl)c1Cl (stereo not shown) [Compound H0765, 3-(1-(2,3-dichloro-4-(5-cyclopropylpyridin-3-yl)phenyl)ethyl)-1-methyl-1-(1-methylpiperidin-4-yl)urea] | 0.061 | 0.137 | 2810

Continued, values first:

IC50 [1] [µM] | EC50 [2] [µM] | Emax [2] | SMILES
0.171 | 0.149 | 2364 | CC(NC(=O)N(C)C1CCN(C)CC1)c1ccc(-c2cnc(-n3ccnc3)nc2)c(Cl)c1Cl (stereo not shown) [Compound H0803, 3-(1-(4-(2-(1H-imidazol-1-yl)pyrimidin-5-yl)-2,3-dichlorophenyl)ethyl)-1-methyl-1-(1-methylpiperidin-4-yl)urea]
0.037 | 0.051 | 1383 | CC(NC(=O)N(C)C1CCN(C)CC1)c1ccc(-c2ccc(C3CC3)cn2)c(Cl)c1Cl (stereo not shown) [Compound H0849, 3-(1-(2,3-dichloro-4-(5-cyclopropylpyridin-2-yl)phenyl)ethyl)-1-methyl-1-(1-methylpiperidin-4-yl)urea]
12 | 3 | – | CC(NC(=O)N(C)C1CCN(C)CC1)c1ccc2c(NC3CC3)noc2c1 (stereo not shown) [Compound H0787, 3-(1-(3-(cyclopropylamino)benzo[d]isoxazol-6-yl)ethyl)-1-methyl-1-(1-methylpiperidin-4-yl)urea]
0.197 | > 30 | – | CC(NC(=O)N(C)C1CCN(C)CC1)c1cnc(C#CC2CC2)c(Cl)c1Cl (stereo not shown) [Compound H0884, 3-(1-(4,5-dichloro-6-(cyclopropylethynyl)pyridin-3-yl)ethyl)-1-methyl-1-(1-methylpiperidin-4-yl)urea]
0.035 | > 30 | – | CCCN(C(=O)NC(C)c1ccc(-c2cnccn2)c(Cl)c1Cl)C1CCN(C)CC1 (stereo not shown) [Compound H0827, 3-(1-(2,3-dichloro-4-(pyrazin-2-yl)phenyl)ethyl)-1-(1-methylpiperidin-4-yl)-1-propylurea]
0.0012 | 0.0068 | 5751 | CNc1ncc(-c2ccc(C(C)NC(=O)N(C)C3CCN(C)CC3)c(Cl)c2Cl)cn1 (stereo not shown) [Compound H0806, 3-(1-(2,3-dichloro-4-(2-(methylamino)pyrimidin-5-yl)phenyl)ethyl)-1-methyl-1-(1-methylpiperidin-4-yl)urea]
0.17 | 0.13 | 3815 | CC(NC(=O)N(C)C1CCN(C)CC1)c1ccc(NC2CC2)c(Cl)c1Cl (stereo not shown) [Compound H0846, 3-(1-(2,3-dichloro-4-(cyclopropylamino)phenyl)ethyl)-1-methyl-1-(1-methylpiperidin-4-yl)urea]
0.016 | 0.007 | 1096 | CC(NC(=O)N(C)C1CCN(C)CC1)c1ccc(-c2cnc(N)s2)c(Cl)c1Cl (stereo not shown) [Compound H0792, 3-(1-(4-(2-aminothiazol-5-yl)-2,3-dichlorophenyl)ethyl)-1-methyl-1-(1-methylpiperidin-4-yl)urea]
0.011 | > 30 | – | CC#Cc1ccc(C(C)NC(=O)N(C)C2CCN(C)CC2)c(Cl)c1Cl (stereo not shown) [Compound H0832, 3-(1-(2,3-dichloro-4-(prop-1-yn-1-yl)phenyl)ethyl)-1-methyl-1-(1-methylpiperidin-4-yl)urea]
2.8 | > 30 | – | COC(=O)C(NC(=O)N(C)C1CCN(C)CC1)c1ccc(-c2cnccn2)c(Cl)c1Cl (stereo not shown) [Compound H0922, methyl 2-(2,3-dichloro-4-(pyrazin-2-yl)phenyl)-2-(3-methyl-3-(1-methylpiperidin-4-yl)ureido)acetate]
0.826 | 3 | 1671 | CC(NC(=O)N(C)C1CCN(C)CC1)c1ccc(-c2nc(N3CCOCC3)nc(N3CCOCC3)n2)c(Cl)c1Cl (stereo not shown) [Compound H0796, 3-(1-(2,3-dichloro-4-(4,6-dimorpholino-1,3,5-triazin-2-yl)phenyl)ethyl)-1-methyl-1-(1-methylpiperidin-4-yl)urea]
